Laboratory results taken from patent US11466025B2, “Thienopyridine derivatives containing unsaturated aliphatic olefinic bond, preparation method and use thereof” (Tianjin Institute of Pharmaceutical Research Co., Ltd., priority 2017, dated 2022).
Read-outs that look alike come from different tables or passages of the source.

Experiments:
[1] = 1 μM
Protocol: Plasma samples (double sample) containing 1 μM of the compounds of the present invention, clopidogrel hydrogen sulfate (LBGL), 2-oxo product (2-Oxo) were prepared from human blank plasma, and incubated at 37° C. 50 μL of the above incubated plasma samples were taken at different time points, and 100 μL of precipitant (acetonitrile:methanol=7:3) and 50 μL of internal standard were added. The mixture was vortexed for 1 min and centrifuged for 10 min. 100 μL of the supernatant was taken into an inner inserted tube, centrifuged for 5 min, and injected for LC-MS/MS analysis.
Preparation of blank control sample (PPT-0): 100 μL of frozen human blank plasma was taken, to which 195 μL of acetonitrile and 100 μL of internal standard were added, followed by 5 μL of the compound of the present invention, clopidogrel or 2-oxo product (20 μM). The mixture was vortexed for 1 min and centrifuged for 10 min. 100 μL of the supernatant was taken into an inner inserted tube, centrifuged for 5 min, and injected for LC-MS/MS analysis.

[2] = test system: bleeding time of amputated tail in rats; assay: Test of hemorrhagic side effects: bleeding time of amputated tail in rats; assay type: in vivo, SD rats; settings: intragastric, tail cut 1 h after administration, linear equation fitted
Protocol: Test of Hemorrhagic Side Effects:
1 h after administration, the rats were anesthetized by intraperitoneal injection of 20% urethane (1 g/kg), and the tail was cut off 5 mm from the tip of the tail, which was then placed in a test tube containing 5 ml normal saline at 37° C. The time from tail cut to cease of bleeding was recorded as the bleeding time. The increasing rate of bleeding time in each dose group was calculated, with the bleeding time of the rats in the control group being 100%.

beagle dogs = assay: Safety evaluation in multiple dosing (14 days); assay type: in vivo; settings: for Drug-related toxicity (appearance, mental activity, appetite, hematological, blood biochemical, ECG): continuous intragastrical administration for 14 days; for ECG examinations, hematological tests and serum biochemical tests: day 7 and 14
Protocol: Safety Evaluation of Compounds I-1 and I-2 in Multiple Dosing:
The test consisted of a physiological control group, a solvent control group, and two administration groups, with 4 animals in each group, half of which were male and the other half of which were female. Two dose groups, 100 mg/kg group and 300 mg/kg group, were set for the test compounds, to which the test compounds at doses of 100 mg/kg and 300 mg/kg were intragastrically administered respectively over 14 days. The solvent control group was administered with an equal volume of the blank solvent. Animals were daily observed for various conditions during the test. ECG examinations were performed before administration, and 7 and 14 days after administration. Hematological and blood biochemical tests were performed before administration and 7 and […] after administration.

[3] = Stability of crystalline form A of I-1 (X-ray powder diffraction after high temperature, high humidity, light); assay type: physicochemical
[4] = intragastric 100 mg/kg over 14 days
[5] = intragastric 300 mg/kg over 14 days

SMILES: C/C=C/C(=O)Oc1cc2c(s1)CCN([C@H](C(=O)OC)c1ccccc1Cl)C2 [Compound I-1, Methyl (S,E)-2-(2-chlorophenyl)-2-(2-(2-butenoyloxy)-6,7-dihydrothieno[3,2-c]pyridin-5(4H)-yl)-acetate]
- 2-Oxo metabolite concentration in human plasma ([1]; 0 min): 0.0412 µM
- 2-Oxo metabolite in human plasma, % ([1]; 0 min): 4.34%
- Concentration of incubated compound in human plasma ([1]; 0 min): 950 nM
- Incubated compound in human plasma, % ([1]; 0 min): 100%
- Generation of 2-oxo (2-Oxo) product in human plasma [1]: rapidly generate 2-oxo products
- 2-Oxo metabolite concentration in human plasma ([1]; 5 min): 0.0807 µM
- 2-Oxo metabolite in human plasma, % ([1]; 5 min): 8.49%
- Concentration of incubated compound in human plasma ([1]; 5 min): 872 nM
- Incubated compound in human plasma, % ([1]; 5 min): 91.7%
- 2-Oxo metabolite concentration in human plasma ([1]; 10 min): 0.143 µM
- 2-Oxo metabolite in human plasma, % ([1]; 10 min): 15.1%
- Concentration of incubated compound in human plasma ([1]; 10 min): 782 nM
- Incubated compound in human plasma, % ([1]; 10 min): 82.3%
- 2-Oxo metabolite concentration in human plasma ([1]; 20 min): 0.195 µM
- 2-Oxo metabolite in human plasma, % ([1]; 20 min): 20.5%
- Concentration of incubated compound in human plasma ([1]; 20 min): 575 nM
- Incubated compound in human plasma, % ([1]; 20 min): 60.5%
- 2-Oxo metabolite concentration in human plasma ([1]; 30 min): 0.198 µM
- 2-Oxo metabolite in human plasma, % ([1]; 30 min): 20.8%
- Concentration of incubated compound in human plasma ([1]; 30 min): 425 nM
- Incubated compound in human plasma, % ([1]; 30 min): 44.7%
- 2-Oxo metabolite concentration in human plasma ([1]; 45 min): 0.167 µM
- 2-Oxo metabolite in human plasma, % ([1]; 45 min): 17.5%
- Concentration of incubated compound in human plasma ([1]; 45 min): 266 nM
- Incubated compound in human plasma, % ([1]; 45 min): 28.0%
- 2-Oxo metabolite concentration in human plasma ([1]; 60 min): 0.130 µM
- 2-Oxo metabolite in human plasma, % ([1]; 60 min): 13.6%
- Concentration of incubated compound in human plasma ([1]; 60 min): 174 nM
- Incubated compound in human plasma, % ([1]; 60 min): 18.3%
- 2-Oxo metabolite concentration in human plasma ([1]; 90 min): 0.0535 µM
- 2-Oxo metabolite in human plasma, % ([1]; 90 min): 5.63%
- Concentration of incubated compound in human plasma ([1]; 90 min): 52.2 nM
- Incubated compound in human plasma, % ([1]; 90 min): 5.49%
- 2-Oxo metabolite concentration in human plasma ([1]; 120 min): 0.0224 µM
- 2-Oxo metabolite in human plasma, % ([1]; 120 min): 2.35%
- Concentration of incubated compound in human plasma ([1]; 120 min): 16.2 nM
- Incubated compound in human plasma, % ([1]; 120 min): 1.70%
- 2-Oxo metabolite concentration in human plasma ([1]; 150 min): 0.00857 µM
- 2-Oxo metabolite in human plasma, % ([1]; 150 min): 0.902%
- Concentration of incubated compound in human plasma ([1]; 150 min): 5.31 nM
- Incubated compound in human plasma, % ([1]; 150 min): 0.558%
- 2-Oxo metabolite concentration in human plasma ([1]; 180 min): 0.00397 µM
- 2-Oxo metabolite in human plasma, % ([1]; 180 min): 0.418%
- Concentration of incubated compound in human plasma ([1]; 180 min): 2.19 nM
- Incubated compound in human plasma, % ([1]; 180 min): 0.231%
- 2-Oxo metabolite concentration in human plasma ([1]; 240 min): 0 µM
- 2-Oxo metabolite in human plasma, % ([1]; 240 min): 0%
- Concentration of incubated compound in human plasma ([1]; 240 min): 0 nM
- Incubated compound in human plasma, % ([1]; 240 min): 0%
- 2-Oxo metabolite concentration in human plasma ([1]; 300 min): 0 µM
- 2-Oxo metabolite in human plasma, % ([1]; 300 min): 0%
- Concentration of incubated compound in human plasma ([1]; 300 min): 0 nM
- Incubated compound in human plasma, % ([1]; 300 min): 0%
- 2-Oxo metabolite concentration in human plasma ([1]; 360 min): 0 µM
- 2-Oxo metabolite in human plasma, % ([1]; 360 min): 0%
- Concentration of incubated compound in human plasma ([1]; 360 min): 0 nM
- Incubated compound in human plasma, % ([1]; 360 min): 0%
- ED200 (dose that doubled the bleeding time) [2]: 1.977 mg/kg
- Drug-related toxicity (appearance, mental activity, appetite, hematological, blood biochemical, ECG) (beagle dogs): no significant drug-related toxicity
- Activities, mental condition and diet (beagle dogs; [4]): normal activities, good mental condition, and normal diet
- ECG examinations, hematological tests and serum biochemical tests (beagle dogs; [4]): no obvious abnormalities
- Activities, mental condition and diet (beagle dogs; [5]): normal activities, good mental condition, and normal diet
- ECG examinations, hematological tests and serum biochemical tests (beagle dogs; [5]): no obvious abnormalities
- Crystalline form ([3]; crystalline form A of I-1, 0 day): Crystalline form A
- Crystalline form ([3]; crystalline form A of I-1, 5 days, High humidity (RH 92.5%)): Crystalline form A
- Crystalline form ([3]; crystalline form A of I-1, 5 days, High temperature (60° C.)): Crystalline form A
- Crystalline form ([3]; crystalline form A of I-1, 5 days, Light (5000 ± 5000 Lx)): Crystalline form A
- Crystalline form ([3]; crystalline form A of I-1, 10 days, High humidity (RH 92.5%)): Crystalline form A
- Crystalline form ([3]; crystalline form A of I-1, 10 days, High temperature (60° C.)): Crystalline form A
- Crystalline form ([3]; crystalline form A of I-1, 10 days, Light (5000 ± 500 Lx)): Crystalline form A
- Crystalline form ([3]; crystalline form A of I-1, 30 days, High humidity (RH 92.5%)): Crystalline form A
- Crystalline form ([3]; crystalline form A of I-1, 30 days, High temperature (60° C.)): Crystalline form A
- Crystalline form ([3]; crystalline form A of I-1, 30 days, Light (5000 ± 500 Lx)): Crystalline form A
- Change of the crystalline form by X-ray powder diffraction ([3]; crystalline form A of I-1, high temperature, high humidity and light for 5, 10 and 30 days): has not changed

SMILES: C/C=C/C=C/C(=O)Oc1cc2c(s1)CCN([C@H](C(=O)OC)c1ccccc1Cl)C2 [Compound I-2, Methyl (S)-2-(2-chlorophenyl)-2-(2-((2E,4E)-2,4-hexadienoyloxy)-6,7-dihydrothieno[3,2-c]pyridin-5(4H)-yl)-acetate]
- 2-Oxo metabolite concentration in human plasma ([1]; 0 min): 0.0192 µM
- 2-Oxo metabolite in human plasma, % ([1]; 0 min): 1.74%
- Concentration of incubated compound in human plasma ([1]; 0 min): 1110 nM
- Incubated compound in human plasma, % ([1]; 0 min): 100%
- Generation of 2-oxo (2-Oxo) product in human plasma [1]: rapidly generate 2-oxo products
- 2-Oxo metabolite concentration in human plasma ([1]; 5 min): 0.0246 µM
- 2-Oxo metabolite in human plasma, % ([1]; 5 min): 2.23%
- Concentration of incubated compound in human plasma ([1]; 5 min): 1030 nM
- Incubated compound in human plasma, % ([1]; 5 min): 93.5%
- 2-Oxo metabolite concentration in human plasma ([1]; 10 min): 0.0319 µM
- 2-Oxo metabolite in human plasma, % ([1]; 10 min): 2.89%
- Concentration of incubated compound in human plasma ([1]; 10 min): 1030 nM
- Incubated compound in human plasma, % ([1]; 10 min): 92.8%
- 2-Oxo metabolite concentration in human plasma ([1]; 20 min): 0.0449 µM
- 2-Oxo metabolite in human plasma, % ([1]; 20 min): 4.06%
- Concentration of incubated compound in human plasma ([1]; 20 min): 1070 nM
- Incubated compound in human plasma, % ([1]; 20 min): 97.1%
- 2-Oxo metabolite concentration in human plasma ([1]; 30 min): 0.0493 µM
- 2-Oxo metabolite in human plasma, % ([1]; 30 min): 4.46%
- Concentration of incubated compound in human plasma ([1]; 30 min): 957 nM
- Incubated compound in human plasma, % ([1]; 30 min): 86.6%
- 2-Oxo metabolite concentration in human plasma ([1]; 45 min): 0.0522 µM
- 2-Oxo metabolite in human plasma, % ([1]; 45 min): 4.72%
- Concentration of incubated compound in human plasma ([1]; 45 min): 927 nM
- Incubated compound in human plasma, % ([1]; 45 min): 83.9%
- 2-Oxo metabolite concentration in human plasma ([1]; 60 min): 0.0521 µM
- 2-Oxo metabolite in human plasma, % ([1]; 60 min): 4.71%
- Concentration of incubated compound in human plasma ([1]; 60 min): 849 nM
- Incubated compound in human plasma, % ([1]; 60 min): 76.8%
- 2-Oxo metabolite concentration in human plasma ([1]; 90 min): 0.0481 µM
- 2-Oxo metabolite in human plasma, % ([1]; 90 min): 4.35%
- Concentration of incubated compound in human plasma ([1]; 90 min): 705 nM
- Incubated compound in human plasma, % ([1]; 90 min): 63.8%
- 2-Oxo metabolite concentration in human plasma ([1]; 120 min): 0.0457 µM
- 2-Oxo metabolite in human plasma, % ([1]; 120 min): 4.14%
- Concentration of incubated compound in human plasma ([1]; 120 min): 695 nM
- Incubated compound in human plasma, % ([1]; 120 min): 62.9%
- 2-Oxo metabolite concentration in human plasma ([1]; 150 min): 0.0445 µM
- 2-Oxo metabolite in human plasma, % ([1]; 150 min): 4.03%
- Concentration of incubated compound in human plasma ([1]; 150 min): 516 nM
- Incubated compound in human plasma, % ([1]; 150 min): 46.7%
- 2-Oxo metabolite concentration in human plasma ([1]; 180 min): 0.0388 µM
- 2-Oxo metabolite in human plasma, % ([1]; 180 min): 3.51%
- Concentration of incubated compound in human plasma ([1]; 180 min): 475 nM
- Incubated compound in human plasma, % ([1]; 180 min): 43.0%
- 2-Oxo metabolite concentration in human plasma ([1]; 240 min): 0.0331 µM
- 2-Oxo metabolite in human plasma, % ([1]; 240 min): 3.00%
- Concentration of incubated compound in human plasma ([1]; 240 min): 332 nM
- Incubated compound in human plasma, % ([1]; 240 min): 30.0%
- 2-Oxo metabolite concentration in human plasma ([1]; 300 min): 0.0294 µM
- 2-Oxo metabolite in human plasma, % ([1]; 300 min): 2.66%
- Concentration of incubated compound in human plasma ([1]; 300 min): 231 nM
- Incubated compound in human plasma, % ([1]; 300 min): 20.9%
- 2-Oxo metabolite concentration in human plasma ([1]; 360 min): 0.0236 µM
- 2-Oxo metabolite in human plasma, % ([1]; 360 min): 2.14%
- Concentration of incubated compound in human plasma ([1]; 360 min): 164 nM
- Incubated compound in human plasma, % ([1]; 360 min): 14.8%
- Drug-related toxicity (appearance, mental activity, appetite, hematological, blood biochemical, ECG) (beagle dogs): no significant drug-related toxicity
- Activities, mental condition and diet (beagle dogs; [4]): normal activities, good mental condition, and normal diet
- ECG examinations, hematological tests and serum biochemical tests (beagle dogs; [4]): no obvious abnormalities
- Activities, mental condition and diet (beagle dogs; [5]): normal activities, good mental condition, and normal diet
- ECG examinations, hematological tests and serum biochemical tests (beagle dogs; [5]): no obvious abnormalities
